Measurements as given in ChEMBL document CHEMBL2384989, “Abietane diterpenoids and a sesquiterpene pyridine alkaloid from Euonymus lutchuensis” (J Nat Prod, 2013).
≈ marks a conversion by molar mass, not a printed value.

Assays:
Assay type in all cases: functional, cell-based
HCT-116 = experiment: Cytotoxicity against human HCT116 cells after 48 hrs by MTT assay; details: HCT-116, 48 h
HL-60 = experiment: Cytotoxicity against human HL60 cells after 48 hrs by MTT assay; details: HL-60, 48 h
P388 = experiment: Cytotoxicity against mouse P388 cells after 48 hrs by MTT assay; details: P388, 48 h

| Structure (SMILES) | IC50 (HCT-116; read-out: IC50) [µg/mL] | IC50 (HL-60; read-out: IC50) [µg/mL] | IC50 (P388; read-out: IC50) [µg/mL] | IC50 (HCT-116) [µg/mL] | IC50 (HL-60) [µg/mL] | IC50 (P388) [µg/mL] |
| --- | --- | --- | --- | --- | --- | --- |
| CC(CO)c1cc2c(cc1O)[C@@]1(C)CCC(=O)C(C)(C)[C@@H]1CC2 (stereo partly specified) | < 5 | < 5 | < 5 |  |  |  |
| CC(CO)c1ccc2c(c1)CC[C@H]1C(C)(C)[C@@H](O)C(=O)C[C@]21C (stereo partly specified) |  |  |  | > 5 | > 5 | > 5 |
| CC(CO)c1ccc2c(c1)CC[C@H]1C(C)(C)C(=O)CC[C@]21C (stereo partly specified) |  |  |  | > 5 | > 5 | > 5 |
| CC(=O)O[C@H]1C(=O)[C@@]2(C)[C@H]([C@H](OC(=O)c3ccccc3)[C@]3(O)C[C@H](OC(=O)[C@H](O)[C@@H](NC(=O)c4ccccc4)c4ccccc4)C(C)=C1C3(C)C)[C@]1(OC(C)=O)CO[C@@H]1C[C@@H]2O [PACLITAXEL] | 0.045 (≈ 0.0527 µM) | 0.005 (≈ 0.00586 µM) | 0.2 (≈ 0.234 µM) |  |  |  |
| CC(O)c1ccc2c(c1)CC[C@H]1C(C)(C)C(=O)CC[C@]21C (stereo partly specified) |  |  |  | > 5 | > 5 | > 5 |
| CC(=O)OC[C@]12[C@H](OC(C)=O)[C@H](OC(C)=O)[C@@H]3[C@@H](O)[C@@]14OC3(C)COC(=O)c1cccnc1[C@H](C)[C@@H](C)C(=O)O[C@H]([C@H](O)[C@@H]2OC(=O)c1ccccc1)C4(C)O (stereo partly specified) [EUOLUCHUMINE] |  |  |  | > 5 | > 5 | > 5 |
| CC(C)c1cc2c(cc1O)C[C@@]13CCCC(C)(C)[C@@H]1C[C@@H]2O3 |  |  |  | > 5 | > 5 | > 5 |
